This passage reports IC50 results from patent publication US7713994B2 (Wyeth LLC, priority 2005, dated 2010).

The target in one assay is T1, cyclin E/CDK2 enzyme (Homo sapiens, UniProt P24941).
T1 construct: made in house; host or cells: Sf9 insect cells, recombinant baculovirus
In words: CDK2 ELISA kinase assay (phospho-Rb ser 795 detection). It counts as biochemical. The method, then: • 1. High-binding ELISA microtiter plates (Costar) were coated with 40 μl of the kinase substrate (GST fusion of C-terminal fragment of the retinoblastoma susceptibility gene product) diluted to 10 μg/ml in tris-buffered saline (TBS), overnight at 4° C. • 2. Non-specific binding sites were blocked for 1 hour at 4° C. with Superblock in TBS (Pierce), and the plates rinsed with water. • 3. For the screen, 1.5 μl of test compound (200 μg/ml stock in 20% DMSO/20 mM HEPES, pH 7.5) was added to each well. Final dose of the test compound in the assay was 10 ug/ml. […] The kinase reaction (30 μl) was dispensed into each well. Reactions contained 200 μM ATP, 0.5 mg/ml bovine serum albumin (BSA; Sigma), and 0.5 μl partially purified cyclin D1/cdk 4 enzyme*. The enzyme complex is expressed in insect cells (Sf9) infected with recombinant baculovirus and partially purified using ammonium sulfate fractionation. Reaction volumes were adjusted to 30 μl with kinase assay buffer (50 mM HEPES, pH 7.5, 10 mM MgCl2, 5% glycerol, 10 mM 2-mercaptoethanol). • *: For CDK2 assay, 1.0 μl cyclin E/CDK2 enzyme (diluted 1:1000 in kinase assay buffer) was used. The enzyme is isolated from insect cells (Sf9) infected with recombinant baculovirus and partially purified using ammonium sulfate fractionation. For CDK1 assay, 0.08 μl cyclin B/CDK1 enzyme [New England BioLabs; the enzyme is isolated from insect cells (Sf9) infected with recombinant baculovirus carrying human cdc 2 and human cyclin B] was used.
[…] • 5. Plates were incubated at 30° C. for 1 hour. • 6. The reaction mixture was removed by aspiration and replaced with 250 μl TBS containing 0.1% Tween-20 and 5% nonfat dry milk (blocking buffer). The plates were incubated at 4° C. for 1 hour. • 7. The blocking buffer was removed and replaced with 50 μl of the primary antibody [anti-phospho-Rb ser 795 (New England BioLabs) diluted 1:1000 in blocking buffer]. Incubation was at 4° C. for 16-20 hours. • 8. The wells were rinsed 3 times with 250 μl of TBS containing 0.1% Tween-20 followed by the addition of 50 μl of secondary antibody [anti-rabbit IgG conjugated to horseradish peroxidase (Amersham Life Science) diluted 1:1000 in blocking buffer]. • 9. After a 1 hour incubation at room temperature, the wells were rinsed 3 times with 250 μl of TBS/0.1% Tween 20. • 10. TMB (3,3′,5,5′-tetramethylbenzidine dihydrochloride) substrate solution (100 μl; Pierce) was added to each well and the color development reaction allowed to proceed 5-10 minutes at room temperature with shaking. The reaction was stopped by the addition of 2N sulfuric acid (100 μl) and the absorbance values read at 450 nm in a microplate reader (Molecular Devices). Analysis of Results: • 1. The percentage of the absorbance value in wells containing the test compound relative to control wells (no test agent) was determined. • 2. IC50 values of selected compounds were determined from inhibition curves, after subtracting background values (no substrate).
For orientation: In an ELISA, binding on a coated surface is turned into a signal by an enzyme label.

The next assay deals with T2, cyclin B/CDK1 enzyme (Homo sapiens, UniProt P06493).
T2 construct: purchased New England BioLabs; host or cells: Sf9 insect cells, recombinant baculovirus
T2 sequence (P06493 whole entry): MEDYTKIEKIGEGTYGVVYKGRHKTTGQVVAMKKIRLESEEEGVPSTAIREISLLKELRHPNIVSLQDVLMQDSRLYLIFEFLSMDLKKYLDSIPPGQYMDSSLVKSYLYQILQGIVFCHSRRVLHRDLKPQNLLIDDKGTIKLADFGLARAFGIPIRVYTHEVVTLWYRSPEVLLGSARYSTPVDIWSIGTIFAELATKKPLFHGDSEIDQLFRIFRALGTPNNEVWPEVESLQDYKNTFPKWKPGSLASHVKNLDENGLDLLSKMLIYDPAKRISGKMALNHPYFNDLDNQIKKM
T2 sequence (P14635 whole entry partner): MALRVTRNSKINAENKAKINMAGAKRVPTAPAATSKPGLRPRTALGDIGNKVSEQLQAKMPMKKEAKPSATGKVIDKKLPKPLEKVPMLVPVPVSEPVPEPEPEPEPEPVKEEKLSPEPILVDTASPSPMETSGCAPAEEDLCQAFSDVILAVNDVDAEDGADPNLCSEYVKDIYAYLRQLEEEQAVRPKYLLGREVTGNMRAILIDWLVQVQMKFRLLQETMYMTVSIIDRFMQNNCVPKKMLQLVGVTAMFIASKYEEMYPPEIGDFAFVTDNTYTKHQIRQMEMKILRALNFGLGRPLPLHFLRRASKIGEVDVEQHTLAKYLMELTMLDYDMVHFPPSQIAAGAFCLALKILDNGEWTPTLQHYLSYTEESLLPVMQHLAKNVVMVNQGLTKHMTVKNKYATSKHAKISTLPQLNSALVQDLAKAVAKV
In words: CDK1 ELISA kinase assay (phospho-Rb ser 795 detection). The class given is biochemical. In outline: (§1)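 Inhibition was derived from A450 relative to control wells lacking compound, following an anti-phospho-Rb Ser795 sandwich of HRP detection. The reactions combined coated GST-Rb fragment, 200 μM ATP and baculovirus-expressed cyclin/CDK enzymes, incubated for 1 h at 30° C.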

The next assay concerns LoVo. Put plainly: Cytotoxicity assay (SRB), LoVo. The following applies: Homo sapiens, LoVo, 72 h, LoVo cells, SRB, three days; read-out: In Vitro Cellular Activity IC50 LOVO. It counts as cell-based. In outline: (§2)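 BT474 (12000 cells/well) was treated for 6 days, whereas HCT-116 (4000), LoVo (6000) and MCF-7 (6000) were treated for 3 days, all in RPMI 1640 containing 5% FBS. Surviving-cell percentage came from SRB dye binding measured at 540 nm.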

A further assay deals with BT474. In words: Cytotoxicity assay (SRB), BT474. The class given is cell-based. Particulars: Homo sapiens, BT-474, 144 h, BT474 cells, SRB, 6 days; read-out: In Vitro Cellular Activity IC50 BT474. In outline:
as §2

For a further assay, the target named is T3, cyclin D1/cdk 4 enzyme (Homo sapiens, UniProt P11802).
T3 construct: made in house; host or cells: Sf9 insect cells, recombinant baculovirus
T3 sequence (P11802 whole entry, species assumed): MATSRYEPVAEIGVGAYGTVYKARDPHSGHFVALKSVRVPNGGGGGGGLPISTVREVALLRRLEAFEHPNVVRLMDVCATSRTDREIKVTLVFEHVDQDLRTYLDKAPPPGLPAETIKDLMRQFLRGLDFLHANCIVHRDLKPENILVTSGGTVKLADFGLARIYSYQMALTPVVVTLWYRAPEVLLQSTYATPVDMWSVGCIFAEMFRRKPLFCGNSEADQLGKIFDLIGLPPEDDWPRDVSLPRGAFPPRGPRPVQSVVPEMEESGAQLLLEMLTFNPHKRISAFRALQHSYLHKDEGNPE
T3 sequence (P24385 whole entry partner, species assumed): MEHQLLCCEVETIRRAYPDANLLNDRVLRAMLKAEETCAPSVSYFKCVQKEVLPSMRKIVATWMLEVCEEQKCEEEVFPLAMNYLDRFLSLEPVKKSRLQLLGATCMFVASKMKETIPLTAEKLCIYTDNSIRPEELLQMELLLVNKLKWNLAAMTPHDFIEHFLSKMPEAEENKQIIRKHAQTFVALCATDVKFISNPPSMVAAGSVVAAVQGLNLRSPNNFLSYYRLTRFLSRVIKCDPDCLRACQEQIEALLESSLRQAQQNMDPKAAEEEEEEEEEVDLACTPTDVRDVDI
In words: CDK4 ELISA kinase assay (phospho-Rb ser 795 detection). The class given is biochemical. The essentials: as §1

[1] abbreviates: In Vitro Enzyme Assays, read-out: CDK2 IC50.
Setting [2] is: In Vitro Enzyme Assays, read-out: CDK1 IC50.
The mark [3] stands for this setting: In Vitro Enzyme Assays, 200 μM ATP, read-out: CDK4 IC50.
The mark [4] stands for this setting: In Vitro Enzyme Assay, cyclin E/CDK2, read-out: CDK2 IC50.
Setting [5] is: In Vitro Enzyme Assay, cyclin B/CDK1, read-out: CDK1 IC50.
Where [6] appears, read: In Vitro Enzyme Assay, cyclin D1/cdk 4, read-out: CDK4 IC50.

Like-named read-outs stand apart in the source and are kept apart here. Where only a bound is given, the exact number is not on record here.

As to `O=C1NC(=O)c2ccc(Nc3ccccc3)cc2/C1=C/Nc1ccc(CN2CCCCC2)cc1` [Example 128, (4Z)-6-Anilino-4-({[4-(piperidin-1-ylmethyl)phenyl]amino}methylene)isoquinoline-1,3(2H,4H)-dione], the IC50 (usually the concentration at which inhibition is half-maximal) on cyclin E/CDK2 enzyme (setting [1]) is greater than 50 µM; on cyclin B/CDK1 enzyme (setting [2]), greater than 50 µM; in the assay on LoVo, 2.1 µM; with BT474 it was 3.1 µM; on cyclin D1/cdk 4 enzyme (setting [3]), 1.8 µM.
For the compound `C[C@@H]1CN(c2ccc(N/C=C3\C(=O)NC(=O)c4ccc(I)cc43)cc2)C[C@H](C)N1C` [Example 234, (4Z)-6-Iodo-4-[({4-[(3R,5S)-3,4,5-trimethylpiperazin-1-yl]phenyl}amino)methylene]-isoquinoline-1,3(2H,4H)-dione], the IC50 at cyclin E/CDK2 enzyme (setting [1]) is greater than 50 µM; on cyclin B/CDK1 enzyme (setting [2]), greater than 50 µM; in the assay with LoVo, 3.4 µM; with BT474, 2.5 µM; on cyclin D1/cdk 4 enzyme (setting [3]) it was 2.8 µM.
On to `O=C1NC(=O)c2ccccc2C1=CNC(Cc1ccc(O)c(O)c1)C(=O)O` (stereo not shown) [Example 567, 3-(3,4-Dihydroxy-phenyl)-2-[(1,3-dioxo-2,3-dihydro-1H-isoquinolin-4-ylidenemethyl)-amino]-propionic acid], for which the figures for the IC50 on cyclin E/CDK2 enzyme (setting [4]), on cyclin B/CDK1 enzyme (setting [5]) and at cyclin D1/cdk 4 enzyme (setting [6]) were 16.2 µM, 17.7 µM and 11.9 µM, respectively.
As to `NS(=O)(=O)c1ccc(CNC=C2C(=O)NC(=O)c3ccc(C=Cc4ccncc4)cc32)cc1` [Example 653, 4-({[1,3-Dioxo-6-(2-pyridin-4-yl-vinyl)-2,3-dihydro-1H-isoquinolin-4-ylidenemethyl]-amino}-methyl)-benzenesulfonamide], the IC50 is 45.5 µM at cyclin E/CDK2 enzyme (setting [4]), greater than 50 µM at cyclin B/CDK1 enzyme (setting [5]) and 0.21 µM on cyclin D1/cdk 4 enzyme (setting [6]).
`NS(=O)(=O)c1ccc(CNC=C2C(=O)NC(=O)c3ccc(C=Cn4ccnc4)cc32)cc1` [Example 658, 4-({[6-(2-Imidazol-1-yl-vinyl)-1,3-dioxo-2,3-dihydro-1H-isoquinolin-4-ylidenemethyl]-amino}-methyl)-benzenesulfonamide]: the IC50 at cyclin E/CDK2 enzyme (setting [4]) was 23.1 µM; at cyclin B/CDK1 enzyme (setting [5]), greater than 50 µM; on cyclin D1/cdk 4 enzyme (setting [6]) it was 0.19 µM.
The like results for `O=C1NC(=O)c2ccc(C=Cc3ccncc3)cc2C1=CNCc1ccc(O)c(O)c1` [Example 663, 4-[(3,4-Dihydroxy-benzylamino)-methylene]-6-(2-pyridin-4-yl-vinyl)-4H-isoquinoline-1,3-dione] were, in that order, 6.3 µM, greater than 50 µM and 0.01 µM.
The like results for `N#Cc1ccc(-c2ccc3c(c2)C(=CNCc2ccc(S(N)(=O)=O)cc2)C(=O)NC3=O)cc1` [Example 755, 4-({[6-(4-Cyano-phenyl)-1,3-dioxo-2,3-dihydro-1H-isoquinolin-4-ylidenemethyl]-amino}-methyl)-benzenesulfonamide] were, in that order, 7.7 µM, 12.3 µM and 0.57 µM.
As for `O=C1NC(=O)c2ccc(-c3ccc(C(=O)O)cc3)cc2C1=CNCc1ccc(O)c(O)c1` [Example 770, 4-{4-[(3,4-Dihydroxy-benzylamino)-methylene]-1,3-dioxo-1,2,3,4-tetrahydro-isoquinolin-6-yl}-benzoic acid], the IC50 on cyclin E/CDK2 enzyme (setting [4]) came out at 13.8 µM; on cyclin B/CDK1 enzyme (setting [5]), 18.5 µM; on cyclin D1/cdk 4 enzyme (setting [6]) it was 0.09 µM.
The like results for `CC(=O)c1ccc(-c2ccc3c(c2)C(=CNCc2ccc(O)c(O)c2)C(=O)NC3=O)cc1` [Example 775, 6-(4-Acetyl-phenyl)-4-[(3,4-dihydroxy-benzylamino)-methylene]-4H-isoquinoline-1,3-dione] were, in that order, 14.1 µM, greater than 50 µM and 0.2 µM.
Take `O=C(O)C=Cc1ccc(-c2ccc3c(c2)C(=CNCc2ccc(O)c(O)c2)C(=O)NC3=O)cc1` [Example 788, 3-(4-{4-[(3,4-Dihydroxy-benzylamino)-methylene]-1,3-dioxo-1,2,3,4-tetrahydro-isoquinolin-6-yl}-phenyl)-acrylic acid]: the IC50 on cyclin E/CDK2 enzyme (setting [4]) came to 17.6 µM; at cyclin B/CDK1 enzyme (setting [5]) it was 17.6 µM; on cyclin D1/cdk 4 enzyme (setting [6]), 0.2 µM.
Regarding `O=C(O)C=Cc1cccc(-c2ccc3c(c2)C(=CNCc2ccc(O)c(O)c2)C(=O)NC3=O)c1` [Example 789, 3-(3-{4-[(3,4-Dihydroxy-benzylamino)-methylene]-1,3-dioxo-1,2,3,4-tetrahydro-isoquinolin-6-yl}-phenyl)-acrylic acid], the IC50 at cyclin E/CDK2 enzyme (setting [4]) was 27.7 µM; on cyclin B/CDK1 enzyme (setting [5]), greater than 50 µM; on cyclin D1/cdk 4 enzyme (setting [6]) it was 0.4 µM.
As for `O=C(O)CCc1ccc(-c2ccc3c(c2)C(=CNCc2ccc(O)c(O)c2)C(=O)NC3=O)cc1` [Example 819, 3-(4-{4-[(3,4-Dihydroxy-benzylamino)-methylene]-1,3-dioxo-1,2,3,4-tetrahydro-isoquinolin-6-yl}-phenyl)-propionic acid], the IC50 was found to be 27.1 µM at cyclin E/CDK2 enzyme (setting [4]), 27.1 µM on cyclin B/CDK1 enzyme (setting [5]) and 0.81 µM on cyclin D1/cdk 4 enzyme (setting [6]).
With `CN1CCN(c2ccc(NC=C3C(=O)NC(=O)c4ccc(-c5ccc6c(ccn6CC(N)=O)c5)cc43)cc2)CC1` [Example 851, 2-[5-(4-{[4-(4-Methyl-piperazin-1-yl)-phenylamino]-methylene}-1,3-dioxo-1,2,3,4-tetrahydro-isoquinolin-6-yl)-indol-1-yl]-acetamide], the IC50 turned out to be 10.3 µM at cyclin E/CDK2 enzyme (setting [4]), 2.7 µM at cyclin B/CDK1 enzyme (setting [5]) and 0.79 µM on cyclin D1/cdk 4 enzyme (setting [6]).
Regarding `CN1CCN(c2ccc(NC=C3C(=O)NC(=O)c4ccc(-c5ccn(CC(N)=O)c5)cc43)cc2)CC1` [Example 853, 2-[3-(4-{[4-(4-Methyl-piperazin-1-yl)-phenylamino]-methylene}-1,3-dioxo-1,2,3,4-tetrahydro-isoquinolin-6-yl)-pyrrol-1-yl]-acetamide], the IC50 on cyclin E/CDK2 enzyme (setting [4]) was greater than 50 µM; at cyclin B/CDK1 enzyme (setting [5]), greater than 50 µM; at cyclin D1/cdk 4 enzyme (setting [6]), 0.12 µM.
Turning to `CCN(CC)CCn1ccc(-c2ccc3c(c2)C(=CNc2ccc(N4CCN(C)CC4)cc2)C(=O)NC3=O)c1` [Example 854, 6-[1-(2-Diethylamino-ethyl)-1H-pyrrol-3-yl]-4-{[4-(4-methyl-piperazin-1-yl)-phenylamino]-methylene}-4H-isoquinoline-1,3-dione], the values for the IC50 at cyclin E/CDK2 enzyme (setting [4]), on cyclin B/CDK1 enzyme (setting [5]) and at cyclin D1/cdk 4 enzyme (setting [6]) were greater than 50 µM, greater than 50 µM and 0.61 µM, respectively.
On to “(4Z)-6-Bromo-4-{[(3-hydroxy-4-methoxybenzyl)amino)methylene}isoquinoline-1,3(2H,4H-dione [Example 50]”, for which the IC50 was greater than 50 µM at cyclin E/CDK2 enzyme (setting [1]), greater than 50 µM on cyclin B/CDK1 enzyme (setting [2]) and 0.03 µM at cyclin D1/cdk 4 enzyme (setting [3]).
